The subject of the first test is patients with ITP.
Assay: not given
The following applies: single center open label study; cited from earlier work.
As to `COc1cc(Nc2ncc(F)c(Nc3ccc4c(n3)N(COP(=O)(O)O)C(=O)C(C)(C)O4)n2)cc(OC)c1OC` [Example R788], the platelet counts entry is “improved platelet counts”.

The next test concerns the target Recombinant human Syk (amino acids 342-635), GST-Syk kinase fusion protein (Homo sapiens (Human), UniProt P43405). Description: Syk Kinase Test (Kinase Glo Luminescence Kinase test). The note with it: read-out: IC50-value (+0.2% BSA in μM); +0.2% BSA.
Description: The catalytic activity of the GST-Syk kinase fusion protein was determined using the Kinase Glo® Luminescence Kinase test (Promega; V6712). In this homogeneous test the amount of ATP remaining after the kinase reaction is quantified by a luciferin-luciferase reaction using luminescence. The luminescence signal obtained correlates with the amount of ATP still present and thus correlates inversely with the activity of the protein kinase.
GST-Syk was diluted to 6.0 nM in the test buffer and 10 μl of this dilution were used in the kinase test (final concentration of Syk=4 nM in a total volume of 15 μl).
Positive controls are the reaction mixtures that contain no test substance; negative controls (blanks) are reaction mixtures that contain no kinase.
After 60 minutes, 10 μl Kinase-Glo® solution (Promega, Cat. #V6712) (heated to room temperature) were added to each well and incubation was continued for a further 15 minutes. The plates were read in a Microplate Scintillation and Luminescence Counter (Canberra Packard GmbH).
Data Evaluation and Calculation:
The output file of the “Counter” is a text file that contains the well number and measured counts in two columns. […] Based on this values the % inherent value for the measurement of each substance concentration was calculated using an “MS-Excel-VB macro”. […] The IC50 values were calculated from the % inhibition values using “GraphPadPrism” software (Version 5) (GraphPad Software Inc.).
By IC50 is commonly meant the point on the concentration scale where inhibition reaches its midpoint. For the molecule `C[C@@H](Oc1cc(-c2ccccn2)cc2ncccc12)[C@H]1CNC(=O)C1` [Example 6, (R)-4-((R)-1-(7-(pyridin-2-yl)quinolin-5-yloxy)ethyl)pyrrolidin-2-one], the 50% inhibitory concentration (IC50) is 0.0017 µM.

Staying with this test, now noted: read-out: IC50-value (+0.2% HSA in μM); +0.2% HSA.
On to `Cc1nc2ccc(-c3cc(O[C@H](C)[C@H]4CNC(=O)C4)c4cccnc4c3)cc2s1` [Example 85, (R)-4-((R)-1-(7-(2-methylbenzo[d]thiazol-6-yl)quinolin-5-yloxy)ethyl)pyrrolidin-2-one], for which the IC50 worked out at 0.0002 µM.
Regarding `C[C@@H](Oc1cc(-c2ccc3c(c2)ncn3C)cc2ncccc12)[C@H]1CNC(=O)C1` [Example 94, (R)-4-((R)-1-(7-(1-methyl-1H-benzo[d]imidazol-5-yl)quinolin-5-yloxy)ethyl)pyrrolidin-2-one], the IC50 was 0.0003 µM.
In the case of `C[C@@H](Oc1cc(-c2ccc3c(c2)CNCC3)cc2ncccc12)[C@H]1CNC(=O)C1` [Example 101, (R)-4-((R)-1-(7-(1,2,3,4-tetrahydroisoquinolin-7-yl)quinolin-5-yloxy)ethyl)pyrrolidin-2-one], the half-maximal inhibitory concentration (IC50) amounted to 0.0004 µM.
Turning to `COc1cc(-c2cc(O[C@H](C)[C@H]3CNC(=O)C3)c3cccnc3c2)ccc1C(F)(F)F` [Example 102, (R)-4-((R)-1-(7-(3-methoxy-4-(trifluoromethyl)phenyl)quinolin-5-yloxy)ethyl)pyrrolidin-2-one], the IC50 came to 0.0045 µM.
Same read-out and setting: the figure for `Cc1nc2cc(-c3cc(O[C@H](C)[C@H]4CNC(=O)C4)c4cccnc4c3)ccc2n1C` [Example 105, (R)-4-((R)-1-(7-(1,2-dimethyl-1H-benzo[d]imidazol-5-yl)quinolin-5-yloxy)ethyl)pyrrolidin-2-one] is 0.0002 µM; for `Cc1nc2cc(-c3cc(O[C@H](C)[C@H]4CNC(=O)C4)c4cccnc4c3)ccc2[nH]1` [Example 109, (R)-4-((R)-1-(7-(2-methyl-1H-benzo[d]imidazol-5-yl)quinolin-5-yloxy)ethyl)pyrrolidin-2-one] it is 0.0004 µM.
Consider `Cc1c(-c2cc(O[C@H](C)[C@H]3CNC(=O)C3)c3cccnc3c2)cnn1C` [Example 112, (R)-4-((R)-1-(7-(1,5-dimethyl-1H-pyrazol-4-yl)quinolin-5-yloxy)ethyl)pyrrolidin-2-one], for which the IC50 was 0.0012 µM.

(Values after patent US8912173B2, “Substituted quinolines and their use as medicaments” (Boehringer Ingelheim International GmbH, priority 2011, dated 2014).)
